Results on 25 compounds are retold here after patent publication US5861387A, “Controlled release systems and low dose androgens” (Endorecherche Inc., priority 1995, dated 1999).

Series [1] concerns human breast cancer ZR-75-1 cells, androgen receptor. The experiment in a line: Androgenic (androgen receptor) activity in ZR-75-1 cells: cell growth and GCDFP-15/GCDFP-24 secretion. The series is classed as cell-based. Conditions: ZR-75-1 cells, low concentrations. Here is the method:
Maintenance of stock cultures The ZR-75-1 human breast cancer cell line can be obtained from the American Type Culture Collection (Rockville, Md.). The cells are routinely cultured in phenol red-free RPMI 1640 medium supplemented with 10 nM E2, 15 mM Hepes, 2 mM L-glutamine, 1 mM sodium pyruvate, 100 IU penicillin per ml, 100 μg streptomycin sulfate per ml, and 10% (v/v) fetal bovine serum (FBS), in a water-saturated atmosphere of 95% air: 5% CO2 at 37° C.
Stock cultures in their logarithmic growth phase are harvested with 0.05% trypsin/0.02% EDTA (w/v) in Hanks' balanced salts solution and resuspended in E2- and phenol red-free RPMI 1640 medium containing 5% (v/v) dextran-coated charcoal (DCC)-treated FBS and 500 ng of bovine insulin per ml, but otherwise supplemented as described above for maintenance of stock cultures. Cells were plated in 24-well Linbro culture plates (Flow Laboratories) at a final density of 0.5-4.0×10^4 cells/well.
Fourty-eight hours after plating, fresh SD medium containing the appropriate concentrations of steroids are added. […] The incubation media are replaced every other day and cells are harvested by trypsinization after 12 days of treatment, unless otherwise indicated. Cell number can be determined with a Coulter Counter.
Calculations and statistical analyses Apparent IC50 values are calculated using an iterative least squares regression (Rodbard, Endocrinology 94:1427-1437,1974), while apparent inhibition constants (Ki values) are calculated according to Cheng and Prusoff (Biochem. Pharmacol. 22: 3099-3108,1973).
In addition to inhibition of cell growth, the secretion of two glycoproteins, namely gross cystic disease fluid protein-15 (GCDFP-15) and GCDFP-24 is markedly stimulated by androgens (Simard et al., Mol. Endocrinol. 3: 694-702, 1989; Simard et al., Endocrinology 126: 3223-3231, 1990).
To assist in determining the activity of the potential compounds on the various steroid receptors, androgen, glucocorticoid, progesterone and estrogen-receptor-mediated activities of synthetic progestins and anabolic steroids can be measured in ZR-75-1 human breast cancer cells using cell growth as well as GCDFP-15 and GCDFP-24 release as parameters of response (Poulin and Labrie, Cancer Res. 46: 4933-4937, 1986; Poulin et al., Breast Cancer Res. Treatm. 12: 213-225, 1988; Poulin et al., Breast Cancer Res. Treatm. 13: 161-172, 1989; Poulin et al., Breast Cancer Res. Treatm. 13: 265-276, 1989; Simard et al., Mol. Endocrinol. 3: 694-702, 1989; Simard et al., Endocrinology 126: 3223-3231, 1990).
In order to analyze the interactions of synthetic progestins or anabolic steroids with the androgen receptor (AR) and glucocorticoid receptor (GR) in their inhibitory action on cell growth, one takes advantage of the additivity of the anti-proliferative effects of androgens and glucocorticoids in this cell line (Poulin et al., Breast Cancer Res. Treatm. 12: 213-225, 1988; Hatton and Labrie, F., unpublished data). […] On the other hand, the effect of a putative androgen can similarly be measured following saturation of GR by dexamethasone (DEX). […] Thus, in the presence of excess androgen (1 μM DMT) in the presence of E2 and insulin, glucocorticoid effects can be assessed with precision and with no interference by the other receptors. The same applies to study of the role of AR when the cells are incubated in the presence of excess glucocorticoid (3 μM DEX), in the presence of E2 and insulin.

The next series relates to antibody 144A. Nature of the series: MPA radioimmunoassay, specificity of antibody 144A. It counts as binding, rabbit. An excerpt:
Antibody 144A was raised in rabbits against 17-hydroxyprogesterone-3-0-carboxymethyloxime-BSA. The labeled steroid used in the radioimmunoassay (RIA) was methyl-17α-hydroxyprogesterone acetate, 6α-[1,2-^3 H(N)]- obtained from NEN (CAT NO: NET 480) while the reference preparation was medroxyprogesterone acetate (MPA) obtained from Steraloids. The assay buffer used was 0.1% gelatin in 0.1M sodium phosphate, 0.15M sodium chloride, 0.1% sodium azide, pH 7.2. The extraction solvent mixture was ethyl ether-acetone (9:1, v:v) [EEA] while the LH-20 chromatography solvent mixture was iso-octane: toluene: methanol (90:5:5;v:v:v) [IOTH].
One ml of plasma was extracted twice with 5 ml of EEA. The extracts were evaporated to dryness with nitrogen and the remaining residue was dissolved in one ml of IOTH. The extracts were then subjected to LH-20 chromatography on […] columns (Coming CAT NO: 05 722A) filled with 2 g of LH-20 (Pharmacia). The gel was washed with 30 ml of IOTH before addition of one ml of sample and elution with IOTH. The first 6 ml were discarded. The following 10, 16.5 and 27.5 ml of eluent were fraction I (progesterone), II (MPA) and III (17-LH-progesterone), respectively. Fraction II was evaporated to dryness and reconstituted in 1.5 ml of assay buffer.
To each 12 x 75 mm borosilicate test tube was added: 0.2 ml containing 25,000 DPM of tritiated steroid, 0.5 ml of reference preparation ranging from 5 to 5000 pg/tube or 0.5 ml of extracted sample fraction II, 0.2 ml of antiserum 144A diluted 1/5000 or 0.2 ml of assay buffer to account for non specific binding. The tubes were then incubated overnight at 4° C. Then, 0.2 ml 2% charcoal Norit-A, 0.2% Dextran T-70 diluted in water was added. The tubes were then shaken gently and, after 10 min, they were centrifuged at 2000 x g for 10 min. The supernatant was mixed with 8 ml of Formula-989 (NEN: NEF-989) and the radioactivity was counted in a β-counter.

The next series has as its system bone. Conditions: cited from earlier work.
In series [2] the test system is breast cancer. As to conditions: in vivo; cited from earlier work.
Series [3] deals with breast cancer. As to conditions: cited from earlier work.
In series [4] the test system is breast cancer. As to conditions: cited from earlier work. The source holds these as a separate data set.
For series [5], the system named is DMBA-induced mammary carcinoma. Conditions: cited from earlier work.
Where [6] appears, read: E2-treated ovariectomized rats, with or without DHT.

In the case of `C#C[C@]1(O)CC[C@H]2[C@@H]3CCC4=CC(=O)CC[C@]4(C)[C@H]3CC[C@@]21C` [ethisterone], the androgenic activity entry in series [1] is given as “possess androgenic activity at low concentrations”.

Turning to `C[C@@H]1C[C@@]2(C)[C@@H](CC[C@@H]3[C@@H]2CC[C@]2(C)[C@@H](O)CC[C@@H]32)CC1=O` [dromostanolone], the androgenic activity entry in series [1] was “possess androgenic activity at low concentrations”.

On to `CC(=O)[C@@]1(O)CC[C@H]2[C@@H]3CC=C4C[C@@H](O)CC[C@]4(C)[C@H]3CC[C@@]21C` [17-OH-pregnenolone], for which the “cross-reactivity with antibody 144A” value in the series on antibody 144A is on record as “less than 0.1%”.

Take `C[C@H]1CC2=CC(=O)CC[C@]2(C)[C@H]2CC[C@@]3(C)[C@@H](CC[C@]3(C)O)[C@H]12` [calusterone, 7β,17α-dimethyltestosterone]: the androgenic activity result in series [1] is recorded as “possess androgenic activity at low concentrations”.

`C[C@H](O)[C@H]1CC[C@H]2[C@@H]3CCC4=CC(=O)CC[C@]4(C)[C@H]3CC[C@]12C` [20α-OH-Prog]: the “cross-reactivity with antibody 144A” value in the series on antibody 144A is “less than 0.1%”.

Take `CC(=O)[C@H]1CC[C@H]2[C@@H]3CC=C4C[C@@H](O)CC[C@]4(C)[C@H]3CC[C@]12C` [pregnenolone]: the “cross-reactivity with antibody 144A” value in the series on antibody 144A is recorded as “less than 0.1%”.

In the case of `C[C@]12CC[C@@H](O)C[C@@H]1CC[C@@H]1[C@@H]2CC[C@]2(C)[C@@H](O)CC[C@@H]12` [3α-diol], in the series on antibody 144A, the “cross-reactivity with antibody 144A” value is given as “less than 0.1%”.

On to `C[C@]12C=CC(=O)C=C1CC[C@@H]1[C@@H]2CC[C@@]2(C)[C@H]1CC[C@]2(C)O` [methandrostanolone], for which the androgenic activity result in series [1] is recorded as “possess androgenic activity at low concentrations”. Further, the “effect on postmenopausal osteoporosis (total body calcium)” value in the series with bone (24-26 months, double-blind) was “positive and relatively long-term”.

Turning to `CC(=O)[C@H]1CC[C@H]2[C@@H]3CCC4=CC(=O)CC[C@]4(C)[C@H]3CC[C@]12C` [progesterone], the “cross-reactivity with antibody 144A” value with antibody 144A is “less than 0.1%”.

On to `CC/C(=C(/CC)c1ccc(O)cc1)c1ccc(O)cc1` [DES], for which, in the series with breast cancer [2], the “objective remissions in breast cancer” value is reported as “effective in producing objective remissions”.

For `C[C@]12CC[C@@H]3c4ccc(O)cc4CC[C@H]3[C@@H]1CCC2=O` [estrone], the “cross-reactivity with antibody 144A” value in the series with antibody 144A is on record as “less than 0.1%”.

Take `C[C@]12CCC(=O)C=C1CC[C@@H]1[C@@H]2[C@@H](O)C[C@@]2(C)[C@H]1CC[C@]2(O)C(=O)CO` [cortisol]: the “cross-reactivity with antibody 144A” value with antibody 144A was “less than 0.1%”.

Turning to `C[C@]12CC[C@H]3[C@@H](CCC4=CC(=O)CC[C@@H]43)[C@@H]1CC[C@@H]2O` [Nor-testosterone], in series [1], the androgenic activity entry was “possess androgenic activity at low concentrations”.

For `CCCCCCC(=O)O[C@H]1CC[C@H]2[C@@H]3CC[C@H]4CC(=O)C=C(C)[C@]4(C)[C@H]3CC[C@]12C` [methonolone enanthate], the response rate with breast cancer [3] (13 of 27 patients) is on record as 48%. For the same compound, the “median duration of survival, non-responders” value in the series on breast cancer [3] (non-responder group) is given as 7.5 months. Also, in the series with breast cancer [3] (responders), the “median duration of survival, responders” value is recorded as 27 months.

Take `C[C@]12CCC(=O)C=C1CC[C@@H]1[C@@H]2CC[C@]2(C)C(=O)CC[C@@H]12` [androstenedione]: the “cross-reactivity with antibody 144A” value in the series with antibody 144A is on record as “less than 0.1%”.

In the case of `CC/C(=C(\c1ccccc1)c1ccc(OCCN(C)C)cc1)c1ccccc1` [Tamoxifen], in the series on breast cancer [4] (in vivo), the “median time from onset of therapy to treatment failure” value is recorded as 64 days, the non-responders is on record as 50% and the “partial response (PR)” value is recorded as 15%. Also, the survival with breast cancer [4] (tendency for improved survival) is 330 days.

Turning to `C[C@]12COC(=O)C[C@@H]1CC[C@@H]1[C@@H]2CC[C@@]2(C)[C@H]1CC[C@]2(C)O` [oxandrolone], the androgenic activity entry in series [1] was “possess androgenic activity at low concentrations”.

Take `CC(=O)O[C@]1(C(C)=O)CC[C@H]2[C@@H]3C=C(Cl)C4=CC(=O)CC[C@]4(C)[C@H]3CC[C@@]21C` [chlormadinone acetate]: the androgenic activity result in series [1] was “possess androgenic activity at low concentrations”.

For the compound Vitamin D, the “bone resorption, osteoporotic women” value with bone (in vivo) was “only reduced bone resorption”.

`C[C@]12C/C(=C/O)C(=O)C[C@@H]1CC[C@@H]1[C@@H]2CC[C@@]2(C)[C@H]1CC[C@]2(C)O` [oxymetholone]: the androgenic activity entry in series [1] is “possess androgenic activity at low concentrations”.

As to `CCC(=O)O[C@H]1CC[C@H]2[C@@H]3CCC4=CC(=O)CC[C@]4(C)[C@H]3CC[C@]12C` [testosterone propionate], in the series on breast cancer [2], the “effect in pre- and post-menopausal women” value is “beneficial effects in both pre- and post-menopausal women”; the “objective remissions in breast cancer” value is recorded as “effective in producing objective remissions”; the “remission rate and duration, quality of life and survival” value was “improved remission rate and duration, quality of life and survival”.

Take `C[C@]12CC[C@@H]3c4ccc(O)cc4CC[C@H]3[C@@H]1CC[C@@H]2O` [E2, 17β-estradiol]: the “number of new tumors per rat” value in series [5] (28-day observation period, E2-treated animals, with or without DHT) is recorded as 1.5±0.3 per rat. Also, in series [5] (setting [6]), the “complete responses (disappearance of palpable tumors)” value was 11.5% and the progressing tumors is recorded as 69.2%. Besides, the “cross-reactivity with antibody 144A” value in the series with antibody 144A was “less than 0.1%”.

For the compound `C#C[C@]1(O)CC[C@H]2[C@@H]3CCC4=Cc5oncc5C[C@]4(C)[C@H]3CC[C@@]21C` [danazol], the androgenic activity result in series [1] was “possess androgenic activity at low concentrations”.

Take `CC(C)C(=O)Nc1ccc([N+](=O)[O-])c(C(F)(F)F)c1` [Flutamide]: the “effect on DHT action” value in series [5] (simultaneous treatment with DHT) is listed as “completely prevented DHT action”.

Consider `C[C@]12Cc3c[nH]nc3C[C@@H]1CC[C@@H]1[C@@H]2CC[C@@]2(C)[C@H]1CC[C@]2(C)O` [stanozolol], for which, in series [1], the androgenic activity result is “possess androgenic activity at low concentrations”. Also, the bone mass result with bone (in vivo) is listed as “increase in total bone mass”. Besides, the side effects result in the series with bone (randomized study in postmenopausal women) was “side effects were recorded in the majority of patients”.
